For test [1], the system named is H1703 lung tumor model. As to the kind of experiment: H1703 xenograft in vivo efficacy. More on the design: species or system nu/nu mice. The settings on record: tumor weight reduction. Here is the method:
(§1) For all other tumors as listed in table 2 & 3 the experiments were carried out in an analogous way as described above.

The test system of test [2] is HNXF908 head&neck tumor model. As to the kind of experiment: HNXF908 xenograft in vivo efficacy. On the set-up: species or system nu/nu mice. The conditions noted are these: tumor weight reduction. On the procedure: as §1
The subject of test [3] is LU1901 lung tumor model. As to the kind of experiment: LU1901 xenograft in vivo efficacy. On the set-up: species or system nu/nu mice. The settings on record: tumor weight reduction. Here is the method:
as §1

Test [4] has as its system DMS114 lung tumor model. Briefly: DMS114 xenograft in vivo efficacy. On the set-up: species or system nu/nu mice. The conditions noted are these: tumor weight reduction. On the procedure:
as §1

The subject of test [5] is KYSE-140 esophageal tumor model. Briefly: KYSE-140 xenograft in vivo efficacy. On the set-up: species or system nu/nu mice. The settings on record: KYSE-140 esophageal model; tumor weight reduction. Here is the method: as §1
In test [6] the test system is H1581 lung tumor model. As to the kind of experiment: H1581 xenograft in vivo efficacy. The conditions noted are these: tumor weight reduction. On the set-up: species or system nu/nu mice. On the procedure: as §1
The test system of test [7] is SNU16 gastric tumor model. Briefly: SNU16 xenograft in vivo efficacy. The conditions noted are these: tumor weight reduction. On the set-up: species or system nu/nu mice. Here is the method: as §1
In test [8] the test system is HN9897 Head & Neck squamous cell carcinoma. As to the kind of experiment: HN9897 patient-derived xenograft study. The format is in vivo, nu/nu mice.
Test [9] has as its system MFE280 endometrial tumor model. As to the kind of experiment: MFE280 xenograft in vivo efficacy. More on the design: species or system nu/nu mice. The settings on record: tumor weight reduction. On the procedure:
as §1

The test system of test [10] is HepG2 liver tumor model. Briefly: HepG2 xenograft in vivo efficacy. On the set-up: species or system nu/nu mice. The conditions noted are these: tumor weight reduction. Here is the method:
as §1

The subject of test [11] is LXFE211 lung tumor model. As to the kind of experiment: LXFE211 xenograft in vivo efficacy. More on the design: species or system nu/nu mice. The settings on record: tumor weight reduction. Here is the method: as §1
The subject of test [12] is OMP2 myeloma tumor model. Briefly: OMP2 xenograft in vivo efficacy. More on the design: species or system nu/nu mice. The settings on record: tumor weight reduction. On the procedure: as §1
Test [13] concerns LXFA1584 lung tumor model. As to the kind of experiment: LXFA1584 xenograft in vivo efficacy. On the set-up: species or system nu/nu mice. The conditions noted are these: tumor weight reduction. Here is the method: as §1
The subject of test [14] is HN366 head&neck tumor model. Briefly: HN366 xenograft in vivo efficacy. More on the design: species or system nu/nu mice. The conditions noted are these: tumor weight reduction. Here is the method:
as §1

Test [15] has as its system A2780 ovarian tumor model. Briefly: A2780 xenograft in vivo efficacy. The settings on record: tumor weight reduction. On the set-up: species or system nu/nu mice. On the procedure: as §1
Test [16] deals with RT112 bladder tumor model. Briefly: RT112 xenograft in vivo efficacy. More on the design: species or system nu/nu mice. The conditions noted are these: tumor weight reduction. Here is the method:
as §1

For test [17], the system named is LU0697 lung tumor model. Briefly: LU0697 xenograft in vivo efficacy. On the set-up: species or system nu/nu mice. The settings on record: tumor weight reduction. Here is the method: as §1
The subject of test [18] is H716 colon tumor model. Briefly: H716 xenograft in vivo efficacy. On the set-up: species or system nu/nu mice. The settings on record: tumor weight reduction. Here is the method:
as §1

The test system of test [19] is MFM223 breast tumor model. As to the kind of experiment: MFM223 xenograft in vivo efficacy. More on the design: species or system nu/nu mice. The settings on record: tumor weight reduction. Here is the method:
as §1

The test system of test [20] is OVXF1023 ovarian carcinoma. As to the kind of experiment: OVXF1023 patient-derived xenograft study. The test is classed as in vivo, nu/nu mice. An excerpt: Female, 5-7 weeks old immunocompromised nu/nu mice (18-24 g) from Janvier (France) were used for the patient-derived OVX1023 ovarian carcinoma study.
The animals were housed in individually ventilated cages ([…] Sealsafe™-IVC-System, […], Hohenpeissenberg, Germany) and were kept under a 14L:10D artificial light cycle. The animals were monitored twice daily. Depending on group size, either type III cages or type II long cages were used. Dust-free bedding consisting of aspen wood chips with approximate dimensions of 5×5×1 mm (ABEDD®—LAB & VET Service GmbH, Vienna, Austria, Product Code: LTE E-001) were used. Additional nesting material was routinely added. […]
All experiments were approved by the local authorities, and were conducted according to all applicable international, national and local laws and guidelines. […] Animals were routinely monitored twice daily on working days and daily on weekends and public holidays. […]
Tumor size was measured twice weekly in two dimensions using a caliper, and the volume was expressed in mm^3 using the formula: V=0.5a×b^2 where a and b are the long and short diameters of the tumor, respectively. […] T-C was calculated with T as the time (in days) required for the mean tumor size of the treatment group to reach a predetermined size (e.g. 1000 mm^3), and C was the time (in days) for the mean tumor size of the control group to reach the same size. […]

For test [21], the system named is LU299 lung tumor model. Briefly: LU299 xenograft in vivo efficacy. More on the design: species or system nu/nu mice. The conditions noted are these: tumor weight reduction. Here is the method: as §1

`COCc1c(-c2cc3cc(C)cc(OC)c3s2)c2c(N)ncnn2c1CN1CCNC(=O)C1` [compound of formula (I)]: the in vivo efficacy entry was “no (All models in which the tumor weight was reduced upon treatment with compounds of formula (I) by at least 50% were considered to be efficacious in vivo.)” in test [1]; “yes (All models in which the tumor weight was reduced upon treatment with compounds of formula (I) by at least 50% were considered to be efficacious in vivo.)” in [2]; “no (All models in which the tumor weight was reduced upon treatment with compounds of formula (I) by at least 50% were considered to be efficacious in vivo.)” in [3]; “yes (All models in which the tumor weight was reduced upon treatment with compounds of formula (I) by at least 50% were considered to be efficacious in vivo.)” in [4]; “no (All models in which the tumor weight was reduced upon treatment with compounds of formula (I) by at least 50% were considered to be efficacious in vivo.)” in test [5]; “yes (All models in which the tumor weight was reduced upon treatment with compounds of formula (I) by at least 50% were considered to be efficacious in vivo.)” in [6]. Moreover, the in vivo efficacy entry in [7] is “yes (All models in which the tumor weight was reduced upon treatment with compounds of formula (I) by at least 50% were considered to be efficacious in vivo.)”; in test [8] (HN9897 head&neck model, tumor weight reduction), “yes (All models in which the tumor weight was reduced upon treatment with compounds of formula (I) by at least 50% were considered to be efficacious in vivo.)”; in test [9], “yes (All models in which the tumor weight was reduced upon treatment with compounds of formula (I) by at least 50% were considered to be efficacious in vivo.)”; in test [10] it was “no (All models in which the tumor weight was reduced upon treatment with compounds of formula (I) by at least 50% were considered to be efficacious in vivo.)”; in [11], “yes (All models in which the tumor weight was reduced upon treatment with compounds of formula (I) by at least 50% were considered to be efficacious in vivo.)”; in [12], “no (All models in which the tumor weight was reduced upon treatment with compounds of formula (I) by at least 50% were considered to be efficacious in vivo.)”. Besides, the in vivo efficacy result in test [13] is “no (All models in which the tumor weight was reduced upon treatment with compounds of formula (I) by at least 50% were considered to be efficacious in vivo.)”; in test [14], “yes (All models in which the tumor weight was reduced upon treatment with compounds of formula (I) by at least 50% were considered to be efficacious in vivo.)”; in test [15], “yes (All models in which the tumor weight was reduced upon treatment with compounds of formula (I) by at least 50% were considered to be efficacious in vivo.)”; in [16], “yes (All models in which the tumor weight was reduced upon treatment with compounds of formula (I) by at least 50% were considered to be efficacious in vivo.)”; in [17], “yes (All models in which the tumor weight was reduced upon treatment with compounds of formula (I) by at least 50% were considered to be efficacious in vivo.)”; in test [18], “yes (All models in which the tumor weight was reduced upon treatment with compounds of formula (I) by at least 50% were considered to be efficacious in vivo.)”. Moreover, the in vivo efficacy result is “yes (All models in which the tumor weight was reduced upon treatment with compounds of formula (I) by at least 50% were considered to be efficacious in vivo.)” in [19]; “yes (All models in which the tumor weight was reduced upon treatment with compounds of formula (I) by at least 50% were considered to be efficacious in vivo.)” in [20] (OVXF1023 ovarian model, tumor weight reduction); “yes (All models in which the tumor weight was reduced upon treatment with compounds of formula (I) by at least 50% were considered to be efficacious in vivo.)” in [21]. The “T/C at day 44 post treatment start” value in [8] (HN9897, 50 mg/kg 2QD po, treated mean/vehicle mean tumor volume) amounted to 0.08. For the same compound, in test [20] (OVXF1023, 35 mg/kg 2QD 5 days on- 2 days off po, treated mean/vehicle mean tumor volume), the “T/C at day 38 post treatment start” value is given as 0.2.

(Values after patent publication US20180333418A1, “USE OF PAN FGFR INHIBITORS AND METHOD OF IDENTIFYING PATIENTS WITH CANCER ELIGIBLE FOR TREATMENT WITH A PAN FGFR INHIBITOR” (BAYER PHARMA AKTIENGESELLSCHAFT, priority 2014, published 2018).)
